Measurements from patent publication US20160297768A1, “NOVEL IMIDAZOLE DERIVATIVES AND THERAPEUTIC USE THEREOF” (INDUSTRY-ACA-DEMIC COORPERATION FOUNDATION, YONSEI …, priority 2013, published 2016).

Tests used:
[1] = test system: A549 cells; assay: Apoptotic activity by MTT analysis, A549 cells; format: cell-based; conditions: 15 μM of the compound, mean±standard deviation; for cytotoxicity at 15 µM: Homo sapiens, A549, 12 h, read-out: Apoptosis (%) A549 cells; for Apoptosis (%) A549 cells: 12 hours
Method: (§1) Lung cancer cells (A549), colorectal cancer cells (HCT116), HeLa cells, liver cancer cells (HepG2), T-cell leukemia cells (Jurkat), myeloid leukemia cells (K562), breast cancer cells (MCF-7 and MDA-MB-231) and myelocytic leukemia cells ([…]) were obtained from the American Type Culture Collection (ATCC), and cultured in 10% fetal bovine serum (FBS), 50 units/mL penicillin and 50 units/mL streptomycin-added RPMI 1640 (Invitrogen). The cells were maintained in a humidified 37° C., 5% CO2 atmosphere. The anticancer activity was detected by MTT analysis. Each type of cancer cells were plated in triplicate in a 96-well microtiter plate, and cultured at 37° C. for 24 hours. The cells were treated with each of the compounds prepared above at 37° C. for 12 hours. After the culturing of the cells, 10 μL of an MTT reagent ((3-[4,5-dimethyl-2-thiazolyl]-2,5-diphenyl-2H-tetrazoliumbromide) was added to each well, and cultured for 3.5 hours. The absorbance of each sample was detected using a UV microplate reader (SpectraMax 340PC 384, Molecular Devices) at 570 nm. The detection results were measured as a mean value. The effect of each compound on apoptosis is shown in Table 1.
(§2) The A549 and HeLa cells were treated with 15 μM of the compound for 12 hours. The apoptosis was detected using MTT (mean±standard deviation).

[2] = test system: HeLa cells; assay: Apoptotic activity by MTT analysis, HeLa cells; format: cell-based; conditions: 15 μM of the compound, mean±standard deviation; for cytotoxicity at 15 µM: Homo sapiens, HeLa, 12 h, read-out: Apoptosis (%) HeLa cells; for Apoptosis (%) HeLa cells: 12 hours
Method: as §1, §2

Compound | cytotoxicity at 15 µM [1] | cytotoxicity at 15 µM [2] | Apoptosis (%) A549 cells [1] | Apoptosis (%) HeLa cells [2]
NCCOCCOCCNC(=O)c1ccc(Cn2c(-c3cccc(C(F)(F)F)c3)nc(-c3ccc(Br)cc3)c2-c2ccc(Br)cc2)cc1 [Example 2, N-(2-(2-(2-aminoethoxy)ethoxy)ethyl)-4-((4,5-bis(4-bromophenyl)-2-(3-(trifluoromethyl)phenyl)-1H-imidazole-1-yl)methyl)benzamide] | 80 ± 1.16% | 88 ± 1.39% | – | –
COc1cccc(-c2nc(-c3cccc(C(F)(F)F)c3)n(Cc3ccc(C(=O)NCCOCCOCCN)cc3)c2-c2cccc(OC)c2)c1 [Example 11, N-(2-(2-(2-aminoethoxy)ethoxy)ethyl)-4-((4,5-bis(3-methoxyphenyl)-2-(3-(trifluoromethyl)phenyl)-1H-imidazole-1-yl)methyl)benzamide] | 81 ± 1.26% | 87 ± 1.55% | – | –
CN(C)c1ccc(-c2nc(-c3cccc(C(F)(F)F)c3)n(Cc3ccc(C(=O)NCCOCCOCCN)cc3)c2-c2ccc(N(C)C)cc2)cc1 [Example 27, N-(2-(2-(2-aminoethoxy)ethoxy)ethyl)-4-((4,5-bis(4-(dimethylamino)phenyl)-2-(3-(trifluoromethyl)phenyl)-1H-imidazole-1-yl)methyl)benzamide] | 76 ± 0.98% | 86 ± 0.38% | – | –
Cc1ccc(-c2nc(-c3cccc(C(F)(F)F)c3)n(Cc3ccc(C(=O)NCCOCCOCCN)cc3)c2-c2ccc(C)cc2)cc1 [Example 35, N-(2-(2-(2-aminoethoxy)ethoxy)ethyl)-4-((4,5-ditolyl-2-(3-(trifluoromethyl)phenyl)-1H-imidazole-1-yl)methyl)benzamide] | 64 ± 1.36% | 87 ± 1.68% | – | –
COc1ccc(-c2nc(-c3ccc(C(F)(F)F)cc3)n(Cc3ccc(C(=O)NCCOCCOCCN)cc3)c2-c2ccc(OC)cc2)cc1 [Example 43, N-(2-(2-(2-aminoethoxy)ethoxy)ethyl)-4-((4,5-bis(4-methoxyphenyl)-2-(4-(trifluoromethyl)phenyl)-1H-imidazole-1-yl)methyl)benzamide] | 36 ± 0.86% | 38 ± 0.38% | – | –
COc1ccc(-c2nc(-c3ccc(C(F)(F)F)cc3C(F)(F)F)n(Cc3ccc(C(=O)NCCOCCOCCN)cc3)c2-c2ccc(OC)cc2)cc1 [Example 44, N-(2-(2-(2-aminoethoxy)ethoxy)ethyl)-4-((2-(2,4-bis(trifluoromethyl)phenyl)-4,5-bis(4-methoxyphenyl)-1H-imidazole-1-yl)methyl)benzamide] | 38 ± 0.68% | 31 ± 0.28% | – | –
COc1ccc(-c2nc(-c3cc(C)cc(C)c3)n(Cc3ccc(C(=O)NCCOCCOCCN)cc3)c2-c2ccc(OC)cc2)cc1 [Example 45, N-(2-(2-(2-aminoethoxy)ethoxy)ethyl)-4-((2-(3,5-dimethylphenyl)-4,5-bis(4-methoxyphenyl)-1H-imidazole-1-yl)methyl)benzamide] | 37 ± 0.5% | 34 ± 1.61% | – | –
COc1ccc(-c2nc(-c3cc(OC)cc(OC)c3)n(Cc3ccc(C(=O)NCCOCCOCCN)cc3)c2-c2ccc(OC)cc2)cc1 [Example 46, N-(2-(2-(2-aminoethoxy)ethoxy)ethyl)-4-((2-(3,5-dimethoxyphenyl)-4,5-bis(4-methoxyphenyl)-1H-imidazole-1-yl)methyl)benzamide] | 37 ± 1.34% | 48 ± 0.28% | – | –
COC(=O)c1cc(C(=O)OC)cc(-c2nc(-c3ccc(OC)cc3)c(-c3ccc(OC)cc3)n2Cc2ccc(C(=O)NCCOCCOCCN)cc2)c1 [Example 47, Dimethyl 5-(1-(4-(2-(2-(2-aminoethoxy)ethoxy)ethylcarbamoyl)benzyl)-4,5-bis(4-methoxyphenyl)-1H-imidazole-2-yl)isophthalate] | 37 ± 0.86% | 40 ± 0.7% | – | –
COc1ccc(-c2nc(-c3cc(OC)c(OC)c(OC)c3)n(Cc3ccc(C(=O)NCCOCCOCCN)cc3)c2-c2ccc(OC)cc2)cc1 [Example 48, N-(2-(2-(2-aminoethoxy)ethoxy)ethyl)-4-((4,5-bis(4-methoxyphenyl)-2-(3,4,5-trimethoxyphenyl)-1H-imidazole-1-yl)methyl)benzamide] | 23 ± 0.68% | 30 ± 0.76% | – | –
NCCOCCOCCNC(=O)c1ccc(Cn2c(-c3cc(C(F)(F)F)cc(C(F)(F)F)c3)nc(-c3ccc(Cl)cc3)c2-c2ccc(Cl)cc2)cc1 [Example 49, N-(2-(2-(2-aminoethoxy)ethoxy)ethyl)-4-((2-(3,5-bis(trifluoromethyl)phenyl)-4,5-bis(4-chlorophenyl)-1H-imidazole-1-yl)methyl)benzamide] | – | – | 0 ± 1.26% | 26 ± 0.38%
COc1ccc(-c2nc(-c3cccc(C(F)(F)F)c3)n(Cc3ccc(C(=O)NCCOCCOCCN)cc3)c2-c2ccc(OC)cc2F)c(F)c1 [Example 68, N-(2-(2-(2-aminoethoxy)ethoxy)ethyl)-4-((4,5-bis(2-fluoro-4-methoxyphenyl)-2-(3-(trifluoromethyl)phenyl)-1H-imidazole-1-yl)methyl)benzamide] | 58 ± 1.48% | 89 ± 0.28% | – | –
COC(=O)c1cc(C(=O)OC)cc(-c2nc(-c3ccc(OC)cc3)c(-c3ccc(OC)cc3)n2Cc2ccc(C(=O)NCCOCCOCCN)cc2)c1 [Example 100, Dimethyl 5-(1-(4-(2-(2-(2-aminoethoxy)ethoxy)ethylcarbamoyl)benzyl)-4,5-bis(4-methoxyphenyl)-1H-imidazole-2-yl)isophthalate] | – | – | 31 ± 1.78% | 37 ± 1.54%
COc1ccc(-c2nc(-c3cc(OC)c(OC)c(OC)c3)n(Cc3ccc(C(=O)NCCOCCOCCN)cc3)c2-c2ccc(OC)cc2)cc1 [Example 102, N-(2-(2-(2-aminoethoxy)ethoxy)ethyl)-4-((4,5-bis(4-methoxyphenyl)-2-(3,4,5-trimethoxyphenyl)-1H-imidazole-1-yl)methyl)benzamide] | – | – | 25 ± 1.92% | 29 ± 2.30%
NCCOCCOCCNC(=O)c1ccc(Cn2c(-c3cc(C(F)(F)F)cc(C(F)(F)F)c3)nc(-c3ccc4c(c3)OCO4)c2-c2ccc3c(c2)OCO3)cc1 [Example 103, N-(2-(2-(2-aminoethoxy)ethoxy)ethyl)-4-((4,5-di(benzo[d][1,3]dioxol-5-yl)-2-(3,5-bis(trifluoromethyl)phenyl)-1H-imidazole-1-yl)methyl)benzamide] | 0% | 0% | – | –
NCCOCCOCCNC(=O)c1ccc(Cn2c(-c3cc(C(F)(F)F)cc(C(F)(F)F)c3)nc(-c3ccc4ccccc4c3)c2-c2ccc3ccccc3c2)cc1 [Example 105, N-(2-(2-(2-aminoethoxy)ethoxy)ethyl)-4-((2-(3,5-bis(trifluoromethyl)phenyl)-4,5-di(naphthalene-2-yl)-1H-imidazole-1-yl)methyl)benzamide] | 39 ± 0.48% | 49 ± 0.41% | – | –
NCCOCCOCCNC(=O)c1ccc(Cn2c(-c3cc(C(F)(F)F)cc(C(F)(F)F)c3)nc(-c3ccc4ncccc4c3)c2-c2ccc3ncccc3c2)cc1 [Example 106, N-(2-(2-(2-aminoethoxy)ethoxy)ethyl)-4-((2-(3,5-bis(trifluoromethyl)phenyl)-4,5-di(quinoline-6-yl)-1H-imidazole-1-yl)methyl)benzamide] | 38 ± 1.28% | 42 ± 0.76% | – | –
COc1ccc(-c2nc(-c3cc(O)cc(O)c3)n(Cc3ccc(C(N)=O)cc3)c2-c2ccc(OC)cc2)cc1 [Example 107, 4-((2-(3,5-dihydroxyphenyl)-4,5-bis(4-methoxyphenyl)-1H-imidazole-1-yl)methyl)benzamide] | 16 ± 0.3% | 0% | – | –
COc1ccc(-c2nc(-c3cc(C#N)cc(C#N)c3)n(Cc3ccc(C(N)=O)cc3)c2-c2ccc(OC)cc2)cc1 [Example 108, 4-((2-(3,5-dicyanophenyl)-4,5-bis(4-methoxyphenyl)-1H-imidazole-1-yl)methyl)benzamide] | 2 ± 0.8% | 12 ± 1.26% | – | –
COc1ccc(-c2nc(-c3cc(C(F)(F)F)cc(C(F)(F)F)c3)n(Cc3ccc(C(=O)NO)cc3)c2-c2ccc(OC)cc2)cc1 [Example 117, 4-((2-(3,5-bis(trifluoromethyl)phenyl)-4,5-bis(4-methoxyphenyl)-1H-imidazole-1-yl)methyl)-N-hydroxybenzamide] | 43 ± 0.52% | 40 ± 1.67% | – | –
COc1ccc(-c2nc(-c3cc(C(F)(F)F)cc(C(F)(F)F)c3)n(Cc3ccc(C(N)=S)cc3)c2-c2ccc(OC)cc2)cc1 [Example 118, 4-((2-(3,5-bis(trifluoromethyl)phenyl)-4,5-bis(4-methoxyphenyl)-1H-imidazole-1-yl)methyl)benzothioamide] | 50 ± 0.41% | 50 ± 1.66% | – | –
CNC(=O)c1ccc(Cn2c(-c3cc(C(F)(F)F)cc(C(F)(F)F)c3)nc(-c3ccc(OC)cc3)c2-c2ccc(OC)cc2)cc1 [Example 119, 4-((2-(3,5-bis(trifluoromethyl)phenyl)-4,5-bis(4-methoxyphenyl)-1H-imidazole-1-yl)methyl)-N-methylbenzamide] | 39 ± 0.76% | 90 ± 1.73% | – | –
